From patent US20100292231A1, “Indazole Compounds for Treating Inflammatory Disorders, Demyelinating Disorders and Cancers” (priority 2007, published 2010)
Where two headings read alike, the source gives them in different places.

What was measured:
Test in all cases: SelectScreen kinase specificity survey
Format in all cases: biochemical
ABL1 E255K = target: T1, ABL1 E255K (Homo sapiens, UniProt P00519, E255K); settings: estimated, abridged dose response curve, read-out: Kinase inhibitory activity EC50
T1 construct: purchased Invitrogen (SelectScreen platform)
Method in brief: (§1)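 Kinases from all classes (230 in total) are treated with a unique substrate and optical read-out system in the presence of 100 micromolar ATP. Uninhibited controls give the baseline phosphorylation signal, and graded compound in 5 steps yields the curve for Hill fitting.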

ACVR1B (ALK4) = target: T2, ACVR1B (ALK4) (Homo sapiens, UniProt P36896); settings: estimated, abridged dose response curve, read-out: Kinase inhibitory activity EC50
T2 construct: purchased Invitrogen, Inc. (SelectScreen platform)
Method in brief: as §1

AURKC (Aurora C) = target: T3, AURKC (Aurora C) (Homo sapiens, UniProt Q9UQB9); settings: estimated, abridged dose response curve, read-out: Kinase inhibitory activity EC50
T3 construct: purchased Invitrogen, Inc. (SelectScreen service)
Method in brief: as §1

CAMK2A (CaMKII alpha) = target: T4, CAMK2A (CaMKII alpha) (Homo sapiens, UniProt Q9UQM7); settings: estimated, abridged dose response curve, read-out: Kinase inhibitory activity EC50
T4 construct: purchased Invitrogen, Inc. (SelectScreen platform)
Method in brief: as §1

CAMK2D (CaMKII delta) = target: T5, CAMK2D (CaMKII delta) (Homo sapiens, UniProt Q13557); settings: estimated, abridged dose response curve, read-out: Kinase inhibitory activity EC50
T5 construct: purchased Invitrogen, Inc. (SelectScreen platform)
Method in brief: as §1

CAMK4 (CaMKIV) = target: T6, CAMK4 (CaMKIV) (Homo sapiens, UniProt Q16566); settings: estimated, abridged dose response curve, read-out: Kinase inhibitory activity EC50
T6 construct: purchased Invitrogen, Inc. (SelectScreen platform)
Method in brief: as §1

CSNK2A2 (CK2 alpha 2) = target: T7, CSNK2A2 (CK2 alpha 2) (Homo sapiens, UniProt P19784); settings: estimated, abridged dose response curve, read-out: Kinase inhibitory activity EC50
T7 construct: purchased Invitrogen, Inc. (SelectScreen service)
Method in brief: as §1

DCAMKL2 (DCK2) = target: T8, DCAMKL2 (DCK2) (Homo sapiens, UniProt Q8N568); settings: estimated, abridged dose response curve, read-out: Kinase inhibitory activity EC50
T8 construct: purchased Invitrogen, Inc. (SelectScreen platform)
Method in brief: as §1

DYRK1A = target: T9, DYRK1A (Homo sapiens, UniProt Q13627); settings: estimated, abridged dose response curve, read-out: Kinase inhibitory activity EC50
T9 construct: purchased Invitrogen (SelectScreen platform)
Method in brief: as §1

DYRK4 = target: T10, DYRK4 (Homo sapiens, UniProt Q9NR20)
T10 construct: purchased Invitrogen (SelectScreen platform)
Method in brief: as §1

EPHB4 = target: T11, EPHB4 (Homo sapiens, UniProt P54760); settings: estimated, abridged dose response curve, read-out: Kinase inhibitory activity EC50
T11 construct: purchased Invitrogen (SelectScreen service)
Method in brief: as §1

FGFR3 = target: T12, FGFR3 (Homo sapiens, UniProt P22607); settings: estimated, abridged dose response curve, read-out: Kinase inhibitory activity EC50
T12 construct: purchased Invitrogen (SelectScreen platform)
Method in brief: as §1

JAK2 = target: T13, JAK2 (Homo sapiens, UniProt O60674); settings: estimated, abridged dose response curve, read-out: Kinase inhibitory activity EC50
T13 construct: purchased Invitrogen (SelectScreen platform)
Method in brief: as §1

MAPKAPK3 = target: T14, MAPKAPK3 (Homo sapiens, UniProt Q16644); settings: estimated, abridged dose response curve, read-out: Kinase inhibitory activity EC50
T14 construct: purchased Invitrogen, Inc. (SelectScreen platform)
Method in brief: as §1

NEK1 = target: T15, NEK1 (Homo sapiens, UniProt Q96PY6); settings: estimated, abridged dose response curve, read-out: Kinase inhibitory activity EC50
T15 construct: purchased Invitrogen, Inc. (SelectScreen service)
Method in brief: as §1

NEK4 = target: T16, NEK4 (Homo sapiens, UniProt P51957); settings: estimated, abridged dose response curve, read-out: Kinase inhibitory activity EC50
T16 construct: purchased Invitrogen, Inc. (SelectScreen service)
Method in brief: as §1

PDGFRA V561D = target: T17, PDGFRA V561D (Homo sapiens, UniProt P16234, V561D); settings: estimated, abridged dose response curve, read-out: Kinase inhibitory activity EC50
T17 construct: purchased Invitrogen (SelectScreen platform)
Method in brief: as §1

PHKG1 = target: T18, PHKG1 (Homo sapiens, UniProt Q16816); settings: estimated, abridged dose response curve, read-out: Kinase inhibitory activity EC50
T18 construct: purchased Invitrogen, Inc. (SelectScreen platform)
Method in brief: as §1

PRKCB2 (PKC beta II) = target: T19, PRKCB2 (PKC beta II) (Homo sapiens, UniProt P05771); settings: estimated, abridged dose response curve, read-out: Kinase inhibitory activity EC50
T19 construct: purchased Invitrogen (SelectScreen platform)
Method in brief: as §1

PRKD2 (PKD2) = target: T20, PRKD2 (PKD2) (Homo sapiens, UniProt Q9BZL6); settings: estimated, abridged dose response curve, read-out: Kinase inhibitory activity EC50
T20 construct: purchased Invitrogen, Inc. (SelectScreen platform)
Method in brief: as §1

ROCK1 = target: T21, ROCK1 (Homo sapiens, UniProt Q13464); settings: estimated, abridged dose response curve, read-out: Kinase inhibitory activity EC50
T21 construct: purchased Invitrogen (SelectScreen platform)
Method in brief: as §1

RPS6KA1 (RSK1) = target: T22, RPS6KA1 (RSK1) (Homo sapiens, UniProt Q15418); settings: estimated, abridged dose response curve, read-out: Kinase inhibitory activity EC50
T22 construct: purchased Invitrogen, Inc. (SelectScreen platform)
Method in brief: as §1

RPS6KA3 (RSK2) = target: T23, RPS6KA3 (RSK2) (Homo sapiens, UniProt P51812); settings: estimated, abridged dose response curve, read-out: Kinase inhibitory activity EC50
T23 construct: purchased Invitrogen, Inc. (SelectScreen platform)
Method in brief: as §1

SGKL (SGK3) = target: T24, SGKL (SGK3) (Homo sapiens, UniProt Q96BR1); settings: estimated, abridged dose response curve, read-out: Kinase inhibitory activity EC50
T24 construct: purchased Invitrogen, Inc. (SelectScreen platform)
Method in brief: as §1

SRPK1 = target: T25, SRPK1 (Homo sapiens, UniProt Q96SB4); settings: estimated, abridged dose response curve, read-out: Kinase inhibitory activity EC50
T25 construct: purchased Invitrogen, Inc. (SelectScreen service)
Method in brief: as §1

STK22B (TSSK2) = target: T26, STK22B (TSSK2) (Homo sapiens, UniProt Q96PF2); settings: estimated, abridged dose response curve, read-out: Kinase inhibitory activity EC50
T26 construct: purchased Invitrogen, Inc. (SelectScreen platform)
Method in brief: as §1

ZAP70 = target: T27, ZAP70 (Homo sapiens, UniProt P43403); settings: estimated, abridged dose response curve, read-out: Kinase inhibitory activity EC50
T27 construct: purchased Invitrogen (SelectScreen)
Method in brief: as §1

T13 sequence (O60674 whole entry): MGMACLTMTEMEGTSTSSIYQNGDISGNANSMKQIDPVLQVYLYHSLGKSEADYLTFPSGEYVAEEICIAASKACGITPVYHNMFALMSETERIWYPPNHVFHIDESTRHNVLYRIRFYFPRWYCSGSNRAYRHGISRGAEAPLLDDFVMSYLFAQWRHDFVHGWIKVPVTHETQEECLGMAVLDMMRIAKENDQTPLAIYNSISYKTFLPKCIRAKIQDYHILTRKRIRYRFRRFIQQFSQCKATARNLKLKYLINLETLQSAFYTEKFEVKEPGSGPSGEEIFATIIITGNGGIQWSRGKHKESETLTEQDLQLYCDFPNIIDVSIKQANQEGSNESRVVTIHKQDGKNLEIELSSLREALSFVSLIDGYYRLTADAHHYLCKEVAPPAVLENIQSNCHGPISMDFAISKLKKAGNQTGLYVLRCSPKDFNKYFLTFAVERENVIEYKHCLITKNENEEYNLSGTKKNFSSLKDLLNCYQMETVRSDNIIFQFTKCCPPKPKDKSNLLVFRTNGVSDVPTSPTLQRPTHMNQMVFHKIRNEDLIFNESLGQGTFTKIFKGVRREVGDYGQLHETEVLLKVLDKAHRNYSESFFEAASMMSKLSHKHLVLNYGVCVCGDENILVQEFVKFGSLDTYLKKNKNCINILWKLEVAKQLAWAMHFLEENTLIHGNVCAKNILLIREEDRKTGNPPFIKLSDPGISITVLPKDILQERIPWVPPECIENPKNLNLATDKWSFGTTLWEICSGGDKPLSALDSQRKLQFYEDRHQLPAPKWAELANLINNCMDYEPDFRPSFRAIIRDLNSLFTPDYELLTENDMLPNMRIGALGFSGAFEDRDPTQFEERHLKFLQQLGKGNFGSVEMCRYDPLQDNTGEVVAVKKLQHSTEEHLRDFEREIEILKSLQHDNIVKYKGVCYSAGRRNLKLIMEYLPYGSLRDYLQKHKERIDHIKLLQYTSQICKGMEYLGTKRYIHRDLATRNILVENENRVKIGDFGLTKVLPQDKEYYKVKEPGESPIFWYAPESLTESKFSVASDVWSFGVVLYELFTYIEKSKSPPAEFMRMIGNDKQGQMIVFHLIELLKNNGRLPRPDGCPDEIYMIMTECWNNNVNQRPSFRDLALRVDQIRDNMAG
T1 sequence (P00519 whole entry E255K): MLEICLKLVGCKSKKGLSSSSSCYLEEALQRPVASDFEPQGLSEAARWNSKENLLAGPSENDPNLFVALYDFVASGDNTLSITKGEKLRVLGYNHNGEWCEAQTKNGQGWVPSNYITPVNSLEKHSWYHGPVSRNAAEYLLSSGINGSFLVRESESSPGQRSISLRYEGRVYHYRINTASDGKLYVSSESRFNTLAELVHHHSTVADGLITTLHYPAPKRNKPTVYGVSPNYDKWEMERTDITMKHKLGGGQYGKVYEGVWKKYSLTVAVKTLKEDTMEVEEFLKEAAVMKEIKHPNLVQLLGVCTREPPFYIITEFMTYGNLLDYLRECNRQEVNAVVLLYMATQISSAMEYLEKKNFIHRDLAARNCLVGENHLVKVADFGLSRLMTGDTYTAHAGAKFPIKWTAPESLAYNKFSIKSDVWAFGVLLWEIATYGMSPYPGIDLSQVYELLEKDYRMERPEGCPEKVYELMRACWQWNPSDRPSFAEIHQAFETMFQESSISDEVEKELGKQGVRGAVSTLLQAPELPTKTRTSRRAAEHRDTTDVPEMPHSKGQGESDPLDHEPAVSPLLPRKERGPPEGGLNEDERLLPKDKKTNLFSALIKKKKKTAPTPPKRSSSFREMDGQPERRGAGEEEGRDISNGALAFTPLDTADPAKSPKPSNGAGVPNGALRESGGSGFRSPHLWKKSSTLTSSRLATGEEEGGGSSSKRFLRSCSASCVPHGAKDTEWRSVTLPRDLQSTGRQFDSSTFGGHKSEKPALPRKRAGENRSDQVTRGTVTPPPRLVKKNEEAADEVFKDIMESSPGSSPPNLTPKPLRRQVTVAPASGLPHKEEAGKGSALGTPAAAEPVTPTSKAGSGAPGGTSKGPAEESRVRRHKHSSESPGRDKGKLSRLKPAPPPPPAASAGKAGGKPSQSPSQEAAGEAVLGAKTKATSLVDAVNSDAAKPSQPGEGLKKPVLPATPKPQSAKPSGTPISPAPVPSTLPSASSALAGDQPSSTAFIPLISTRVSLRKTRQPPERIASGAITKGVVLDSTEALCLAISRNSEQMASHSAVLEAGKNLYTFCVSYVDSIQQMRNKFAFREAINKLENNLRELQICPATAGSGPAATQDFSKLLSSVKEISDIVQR
T11 sequence (P54760 16-987): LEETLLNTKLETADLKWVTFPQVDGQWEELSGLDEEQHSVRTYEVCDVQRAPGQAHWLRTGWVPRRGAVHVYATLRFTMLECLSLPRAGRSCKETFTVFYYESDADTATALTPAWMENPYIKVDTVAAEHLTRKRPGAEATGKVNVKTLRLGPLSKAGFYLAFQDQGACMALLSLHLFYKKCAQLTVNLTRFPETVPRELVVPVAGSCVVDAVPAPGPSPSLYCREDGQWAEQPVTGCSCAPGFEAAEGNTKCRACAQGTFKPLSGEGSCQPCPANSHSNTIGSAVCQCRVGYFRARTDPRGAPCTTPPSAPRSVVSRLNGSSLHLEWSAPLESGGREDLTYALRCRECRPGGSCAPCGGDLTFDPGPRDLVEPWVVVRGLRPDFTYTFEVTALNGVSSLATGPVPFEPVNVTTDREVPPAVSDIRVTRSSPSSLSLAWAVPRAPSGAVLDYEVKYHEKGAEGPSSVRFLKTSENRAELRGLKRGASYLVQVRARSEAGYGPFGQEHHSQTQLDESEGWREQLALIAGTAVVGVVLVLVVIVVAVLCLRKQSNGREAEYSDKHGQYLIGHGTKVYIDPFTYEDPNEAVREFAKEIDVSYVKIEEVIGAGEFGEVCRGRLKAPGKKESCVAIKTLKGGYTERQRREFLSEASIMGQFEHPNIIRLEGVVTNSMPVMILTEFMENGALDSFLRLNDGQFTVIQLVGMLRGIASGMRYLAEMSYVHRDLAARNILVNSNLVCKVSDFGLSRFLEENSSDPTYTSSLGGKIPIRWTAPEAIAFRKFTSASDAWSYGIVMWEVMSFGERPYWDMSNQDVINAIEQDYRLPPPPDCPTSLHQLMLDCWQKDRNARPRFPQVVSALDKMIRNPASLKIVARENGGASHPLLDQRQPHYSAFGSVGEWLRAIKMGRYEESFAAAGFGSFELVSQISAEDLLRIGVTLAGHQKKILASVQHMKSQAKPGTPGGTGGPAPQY
T7 sequence (P19784 whole entry): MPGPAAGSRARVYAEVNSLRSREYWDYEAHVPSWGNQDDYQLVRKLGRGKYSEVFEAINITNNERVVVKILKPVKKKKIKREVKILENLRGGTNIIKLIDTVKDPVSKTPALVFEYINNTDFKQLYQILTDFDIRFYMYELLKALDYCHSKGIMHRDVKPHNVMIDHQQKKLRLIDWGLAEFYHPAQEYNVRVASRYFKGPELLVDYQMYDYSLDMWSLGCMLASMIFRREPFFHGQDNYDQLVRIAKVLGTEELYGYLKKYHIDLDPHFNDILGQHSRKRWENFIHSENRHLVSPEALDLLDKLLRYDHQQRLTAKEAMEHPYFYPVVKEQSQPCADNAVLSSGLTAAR
T2 sequence (P36896 24-505): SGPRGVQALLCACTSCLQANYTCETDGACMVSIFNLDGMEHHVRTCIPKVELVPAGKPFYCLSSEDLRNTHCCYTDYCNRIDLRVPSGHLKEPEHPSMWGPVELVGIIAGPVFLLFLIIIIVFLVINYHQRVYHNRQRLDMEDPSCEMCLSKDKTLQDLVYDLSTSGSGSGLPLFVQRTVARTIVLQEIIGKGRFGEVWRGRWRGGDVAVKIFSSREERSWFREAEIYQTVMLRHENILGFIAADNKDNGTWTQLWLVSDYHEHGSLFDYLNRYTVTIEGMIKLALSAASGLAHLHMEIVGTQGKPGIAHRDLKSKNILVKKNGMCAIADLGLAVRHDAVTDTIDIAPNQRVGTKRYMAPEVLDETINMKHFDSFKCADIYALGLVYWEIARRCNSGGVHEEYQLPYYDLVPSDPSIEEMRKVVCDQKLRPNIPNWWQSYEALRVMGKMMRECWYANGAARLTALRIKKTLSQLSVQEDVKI
T27 sequence (P43403 whole entry): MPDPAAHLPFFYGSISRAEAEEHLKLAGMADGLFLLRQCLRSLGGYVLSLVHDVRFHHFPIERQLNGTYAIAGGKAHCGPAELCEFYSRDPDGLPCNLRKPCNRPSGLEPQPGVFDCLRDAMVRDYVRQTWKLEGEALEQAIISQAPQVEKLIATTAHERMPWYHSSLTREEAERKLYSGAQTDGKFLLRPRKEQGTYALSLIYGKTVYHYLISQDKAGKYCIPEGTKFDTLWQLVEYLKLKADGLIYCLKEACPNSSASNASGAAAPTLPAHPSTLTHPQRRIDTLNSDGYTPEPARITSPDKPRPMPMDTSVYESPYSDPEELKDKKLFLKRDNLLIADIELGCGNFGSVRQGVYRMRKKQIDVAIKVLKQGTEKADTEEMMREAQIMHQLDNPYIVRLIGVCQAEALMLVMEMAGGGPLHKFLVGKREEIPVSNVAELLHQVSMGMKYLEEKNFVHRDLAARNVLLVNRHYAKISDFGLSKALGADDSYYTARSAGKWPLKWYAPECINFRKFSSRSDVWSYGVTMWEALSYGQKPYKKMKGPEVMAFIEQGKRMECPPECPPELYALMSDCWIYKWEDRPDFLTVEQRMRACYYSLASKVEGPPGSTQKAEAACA
T26 sequence (Q96PF2 whole entry): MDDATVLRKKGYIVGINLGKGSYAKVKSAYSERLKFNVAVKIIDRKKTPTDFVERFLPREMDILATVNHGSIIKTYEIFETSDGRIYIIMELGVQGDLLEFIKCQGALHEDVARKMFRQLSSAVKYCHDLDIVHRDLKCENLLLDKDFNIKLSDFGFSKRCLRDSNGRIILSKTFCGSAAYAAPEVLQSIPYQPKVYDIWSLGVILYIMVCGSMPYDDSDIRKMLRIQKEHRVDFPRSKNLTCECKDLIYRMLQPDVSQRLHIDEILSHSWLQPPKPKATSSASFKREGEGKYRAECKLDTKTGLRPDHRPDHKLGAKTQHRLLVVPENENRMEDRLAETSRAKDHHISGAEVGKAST

Structure (SMILES)	EC50 (ABL1 E255K)	EC50 (ACVR1B (ALK4))	EC50 (AURKC (Aurora C))	EC50 (CAMK2A (CaMKII alpha))	EC50 (CAMK2D (CaMKII delta))	EC50 (CAMK4 (CaMKIV))	EC50 (CSNK2A2 (CK2 alpha 2))	EC50 (DCAMKL2 (DCK2))	EC50 (DYRK1A)	EC50 (EPHB4)	EC50 (FGFR3)	EC50 (JAK2)	EC50 (MAPKAPK3)	EC50 (NEK1)	EC50 (NEK4)	EC50 (PDGFRA V561D)	EC50 (PHKG1)	EC50 (PRKCB2 (PKC beta II))	EC50 (PRKD2 (PKD2))	EC50 (ROCK1)	also measured
CCN(CC)CCNc1ccc2ncn3c4ccc(O)cc4c(=O)c1c23 [Symadex, 5-(2-(diethylamino)ethylamino)-8-hydroxy-6H-imidazo[4,5,1-de]acridin-6-one, reference compound]	> 5 µM	> 5 µM	> 5 µM	> 5 µM	2.06 µM	> 5 µM	4.8 µM	> 5 µM	0.708 µM	> 5 µM	> 5 µM	> 5 µM	> 5 µM	3.38 µM	> 5 µM	0.083 µM	2.2 µM	> 5 µM	0.292 µM	> 5 µM	EC50 (DYRK4): > 5 µM; EC50 (RPS6KA1 (RSK1)): 2.07 µM; EC50 (RPS6KA3 (RSK2)): 0.692 µM; EC50 (SGKL (SGK3)): > 5 µM; EC50 (SRPK1): > 5 µM; EC50 (STK22B (TSSK2)): > 5 µM; EC50 (ZAP70): > 5 µM
CN(C)CCCNc1ccc2ncn3c4ccc5[nH]ncc5c4c(=O)c1c23 [Compound (IV)]	3.72 µM	> 5 µM	> 5 µM	0.789 µM	0.218 µM	> 5 µM	> 5 µM	> 5 µM	0.468 µM	> 5 µM	3.21 µM	> 5 µM	> 5 µM	> 5 µM	> 5 µM	0.06 µM	1.01 µM	> 5 µM	0.759 µM	0.487 µM	EC50 (DYRK4; DYRK4, estimated, abridged dose response curve, read-out: Kinase inhibitory activity EC50): > 5 µM; EC50 (RPS6KA1 (RSK1)): 1.74 µM; EC50 (RPS6KA3 (RSK2)): 1.49 µM; EC50 (SGKL (SGK3)): > 5 µM; EC50 (SRPK1): > 5 µM; EC50 (STK22B (TSSK2)): > 5 µM; EC50 (ZAP70): > 5 µM
